≈ marks a conversion by molar mass, not a printed value. Each block holds one compound with its values, some of them ahead of it.
Experiments:
[1] = pharmacokinetic behavior in baboons, 20 mg/kg (Tables 5 and 7); format: in vivo; settings: for Plasma concentration at 24 h / Plasma concentration at 48 h / Cmax / half-life / AUC(0-inf) / dose excreted at 6 h: 20 mg/kg (Table 7); for Cmax / half-life / AUC(0-inf) / concentration at 0.08 h / concentration at 0.16 h / concentration at 0.25 h / concentration at 0.33 h / concentration at 0.5 h / concentration at 0.75 h / concentration at 1 h / concentration at 1.5 h / concentration at 2 h / concentration at 3 h / concentration at 4 h / concentration at 5 h / concentration at 6 h / concentration at 24 h / concentration at 48 h / dose excreted at 6 h: baboon; for Cmax / half-life / AUC(0-inf) / concentration at 0.08 h / concentration at 0.16 h / concentration at 0.25 h / concentration at 0.33 h / concentration at 0.5 h / concentration at 0.75 h / concentration at 1 h / concentration at 1.5 h / concentration at 2 h / concentration at 3 h / concentration at 4 h / concentration at 5 h / concentration at 6 h / concentration at 24 h / concentration at 48 h: plasma; for Cmax: read-out: Maximum plasma concentration; for half-life: read-out: t1/2 β (converted); for AUC(0-inf): trapezium method, read-out: AUC 0-.infin.; for concentration at 0.08 h / concentration at 0.16 h / concentration at 0.25 h / concentration at 0.33 h / concentration at 0.5 h / concentration at 0.75 h / concentration at 1 h / concentration at 1.5 h / concentration at 2 h / concentration at 3 h / concentration at 4 h / concentration at 5 h / concentration at 6 h / concentration at 24 h / concentration at 48 h: 20 mg/kg; for dose excreted at 6 h: urine, read-out: Excretion in urine at 6 h
Description: (§1) Furthermore, the pharmacokinetic behavior of the products according to the invention was studied in baboons after administration at a dose of 20 mg/kg by intramuscular injection or intravenous injection.
(§2) Blood samples taken at various times after administration are used to determine the plasma concentration of the product studied by microbiological assay.
(§3) It is thus possible to construct the curve showing the plasma concentration as a function of time, and to determine different pharmacokinetic parameters of the compound studied:
(§4) the elimination half-life (t1/2 β) is calculated by the formula [formula] in which β represents the elimination gradient or slope;
(§5) the area under the curve (AUC) is determined by the trapezium method.
(§6) The plasma concentrations obtained with various products of the invention are collated in Tables 4 and 5. They are expressed in μg/ml.

[2] = test system: Escherichia coli C1/Col E1::Tn3; assay: bacteriostatic action in vitro by the dilution method (MIC); format: cell-based; settings: read-out: minimum inhibitory concentrations (MIC)
Description: (§7) The bacteriostatic action was determined in vitro by the dilution method. The study was carried out on both Gram-positive strains and Gram-negative strains.
(§8) The results for various products according to the invention, expressed as minimum inhibitory concentrations (MIC - μg/ml), are collated in Table 3.

[3] = test system: Escherichia coli SOL RL 90; assay: as above; format: cell-based; settings: SOLRL90, read-out: minimum inhibitory concentrations (MIC)
Description: as §7, §8

[4] = test system: Klebsiella pneumoniae R30; assay: as above; format: cell-based; settings: read-out: minimum inhibitory concentrations (MIC)
Description: as §7, §8

[5] = test system: Proteus vulgaris GN 76/C-1; assay: as above; format: cell-based; settings: GN76, read-out: minimum inhibitory concentrations (MIC)
Description: as §7, §8

Providencia 155 = assay: as above; format: cell-based; settings: read-out: minimum inhibitory concentrations (MIC)
Description: as §7, §8

[6] = test system: Pseudomonas aeruginosa NCTC 8203; assay: as above; format: cell-based; settings: NCTC8203, read-out: minimum inhibitory concentrations (MIC)
Description: as §7, §8

Staph. aureus Smith = assay: as above; format: cell-based; settings: Staphylococcus aureus, read-out: minimum inhibitory concentrations (MIC)
Description: as §7, §8

[7] = pharmacokinetic behavior in baboons, 20 mg/kg (Tables 4 and 6); format: in vivo; settings: baboon; for Cmax: read-out: Max plasma concentration; for AUC(0-t) at 6 h: trapezium method; for concentration at 0.5 h: 30 minutes; for concentration at 0.75 h: 45 minutes; for concentration at 1 h: 60 minutes; for concentration at 1.5 h: 90 minutes; for concentration at 2 h: 120 minutes; for concentration at 3 h: 180 minutes; for concentration at 4 h: 240 minutes; for concentration at 5 h: 300 minutes; for dose excreted at 6 h: urine, 6 h (Table 6), read-out: Excretion in the urine
Description: as §1, §2, §3, §4, §5, §6

[8] = protein binding by comparing two standard scales in baboon plasma and phosphate buffer; format: in vitro ADME; settings: baboon plasma vs phosphate buffer (pH 7, 0.03M)
From the text: Furthermore, the protein binding is obtained by comparing two standard scales, one being prepared in baboon plasma and the other in phosphate buffer (pH 7, 0.03M).

[9] = plasma, 20 mg/kg, 20 mg/kg (Table 6), read-out: Plasma concentration at 6 h
[10] = plasma, 20 mg/kg, 360 minutes, read-out: plasma concentration

Plasma concentration at 24 h [1]: 7.7 µg/mL | Plasma concentration at 48 h [1]: 0.6 µg/mL | Cmax [1]: 233 µg/mL | half-life [1]: 6.3 h | AUC(0-inf) [1]: 1210 µg·h/mL | concentration at 0.08 h [1]: 233 µg/mL | concentration at 0.16 h [1]: 213 µg/mL | concentration at 0.25 h [1]: 190 µg/mL | concentration at 0.33 h [1]: 170 µg/mL | concentration at 0.5 h [1]: 124 µg/mL | concentration at 0.75 h [1]: 121 µg/mL | concentration at 1 h [1]: 120 µg/mL | concentration at 1.5 h [1]: 112 µg/mL | concentration at 2 h [1]: 98.4 µg/mL | concentration at 3 h [1]: 72.9 µg/mL | concentration at 4 h [1]: 68.7 µg/mL | concentration at 5 h [1]: 62.1 µg/mL | concentration at 6 h [1]: 54.4 µg/mL | concentration at 24 h ([1]; 24 hours): 7.7 µg/mL | concentration at 48 h ([1]; 48 hours): 0.6 µg/mL | dose excreted at 6 h [1]: 18%
Structure (SMILES): CC(C)(ON=C(C(=O)NC1C(=O)N2C(C(=O)O)=C(COC(=O)c3ccc(NS(=O)(=O)CCN)cc3)CSC12)c1csc(N)n1)C(=O)O (stereo not drawn) [C, reference compound]

Structure (SMILES): CC(C)(O/N=C(\C(=O)NC1C(=O)N2C(C(=O)O)=C(COC(=O)c3ccc(NC(=O)[C@@H](N)CCCN)c(O)c3)CSC12)c1csc(N)n1)C(=O)O (stereo partly drawn) [SR 44128]
MIC [2]: 0.12 mg/L (≈ 0.163 µM) | MIC [3]: 2 mg/L (≈ 2.72 µM) | MIC [4]: 1 mg/L (≈ 1.36 µM) | MIC [5]: 0.12 mg/L (≈ 0.163 µM) | MIC (Providencia 155): 1 mg/L (≈ 1.36 µM) | MIC [6]: 2 mg/L (≈ 2.72 µM) | MIC (Staph. aureus Smith): 8 mg/L (≈ 10.9 µM) | Tmax ([7]; plasma, 20 mg/kg (Table 6)): 2 h | Cmax ([7]; plasma, 20 mg/kg (Table 6)): 195 µg/mL | AUC(0-t) at 6 h ([7]; plasma, 20 mg/kg (Table 6)): 898 µg·h/mL | concentration at 6 h [7, 9]: 104 µg/mL | concentration at 10 min ([7]; plasma, 20 mg/kg): 62.9 µg/mL | concentration at 20 min ([7]; plasma, 20 mg/kg): 115 µg/mL | concentration at 0.5 h ([7]; plasma, 20 mg/kg): 135 µg/mL | concentration at 0.75 h ([7]; plasma, 20 mg/kg): 177 µg/mL | concentration at 1 h ([7]; plasma, 20 mg/kg): 188 µg/mL | concentration at 1.5 h ([7]; plasma, 20 mg/kg): 188 µg/mL | concentration at 2 h ([7]; plasma, 20 mg/kg): 195 µg/mL | concentration at 3 h ([7]; plasma, 20 mg/kg): 169 µg/mL | concentration at 4 h ([7]; plasma, 20 mg/kg): 142 µg/mL | concentration at 5 h ([7]; plasma, 20 mg/kg): 123 µg/mL | concentration at 6 h [7, 10]: 105 µg/mL | dose excreted at 6 h ([7]; 20 mg/kg): 72% | fraction unbound [8]: 0.16

Structure (SMILES): CO/N=C(\C(=O)NC1C(=O)N2C(C(=O)O)=C(COC(=O)c3ccc(NC(=O)CN)c(O)c3)CSC12)c1csc(N)n1 (stereo not drawn) [SR 43852]
MIC [2]: 0.06 mg/L (≈ 0.0991 µM) | MIC [3]: 0.25 mg/L (≈ 0.413 µM) | MIC [4]: 4 mg/L (≈ 6.6 µM) | MIC [5]: 16 mg/L (≈ 26.4 µM) | MIC (Providencia 155): 2 mg/L (≈ 3.3 µM) | MIC [6]: 2 mg/L (≈ 3.3 µM) | MIC (Staph. aureus Smith): 0.25 mg/L (≈ 0.413 µM)

Structure (SMILES): CO/N=C(\C(=O)NC1C(=O)N2C(C(=O)O)=C(COC(=O)c3ccc(NS(=O)(=O)CCN)c(O)c3)CSC12)c1csc(N)n1 (stereo not drawn) [SR 44337, 7-[2-(2-Aminothiazol-4-yl)-2-methoxyiminoacetamido]-3-[[4-(2-aminoethylsulfonamido)-3-hydroxybenzoyl]oxymethyl]-3-cephem-4-carboxylic acid bis-trifluoroacetate, syn isomer]
MIC [2]: 0.06 mg/L (≈ 0.0915 µM) | MIC [3]: 0.5 mg/L (≈ 0.763 µM) | MIC [4]: 4 mg/L (≈ 6.1 µM) | MIC [5]: 1 mg/L (≈ 1.53 µM) | MIC (Providencia 155): 1 mg/L (≈ 1.53 µM) | MIC [6]: 2 mg/L (≈ 3.05 µM) | MIC (Staph. aureus Smith): 0.25 mg/L (≈ 0.381 µM) | increase in area under the curve relative to reference product C [1]: 2.7 fold | Plasma concentration at 24 h [1]: 39.0 µg/mL | Plasma concentration at 48 h [1]: 14.4 µg/mL | plasma concentration at 24 hours, times higher than reference product C ([1]; 24 hours): 5 times | plasma concentration at 48 hours, times higher than reference product C ([1]; 48 hours): 24 times | Cmax [1]: 266 µg/mL | half-life [1]: 13.9 h | AUC(0-inf) [1]: 3320 µg·h/mL | concentration at 0.08 h [1]: 266 µg/mL | concentration at 0.16 h [1]: 251 µg/mL | concentration at 0.25 h [1]: 238 µg/mL | concentration at 0.33 h [1]: 206 µg/mL | concentration at 0.5 h [1]: 194 µg/mL | concentration at 0.75 h [1]: 190 µg/mL | concentration at 1 h [1]: 182 µg/mL | concentration at 1.5 h [1]: 164 µg/mL | concentration at 2 h [1]: 153 µg/mL | concentration at 3 h [1]: 152 µg/mL | concentration at 4 h [1]: 147 µg/mL | concentration at 5 h [1]: 141 µg/mL | concentration at 6 h [1]: 120 µg/mL | concentration at 24 h ([1]; 24 hours): 39 µg/mL | concentration at 48 h ([1]; 48 hours): 14.4 µg/mL | dose excreted at 6 h [1]: 14%

Tmax ([7]; plasma, 20 mg/kg (Table 6)): 1.5 h | Cmax ([7]; plasma, 20 mg/kg (Table 6)): 24.1 µg/mL | half-life ([7]; plasma, 20 mg/kg (Table 6), read-out: t1/2 β): 1.65 h | AUC(0-t) at 6 h ([7]; plasma, 20 mg/kg (Table 6)): 87.9 µg·h/mL | concentration at 6 h [7, 9]: 4.8 µg/mL | concentration at 10 min ([7]; plasma, 20 mg/kg): 8.5 µg/mL | concentration at 20 min ([7]; plasma, 20 mg/kg): 16.4 µg/mL | concentration at 0.5 h ([7]; plasma, 20 mg/kg): 16.9 µg/mL | concentration at 0.75 h ([7]; plasma, 20 mg/kg): 17.6 µg/mL | concentration at 1 h ([7]; plasma, 20 mg/kg): 20.7 µg/mL | concentration at 1.5 h ([7]; plasma, 20 mg/kg): 24.1 µg/mL | concentration at 2 h ([7]; plasma, 20 mg/kg): 20.7 µg/mL | concentration at 3 h ([7]; plasma, 20 mg/kg): 17.6 µg/mL | concentration at 4 h ([7]; plasma, 20 mg/kg): 12.5 µg/mL | concentration at 5 h ([7]; plasma, 20 mg/kg): 8.3 µg/mL | concentration at 5.5 h ([7]; plasma, 20 mg/kg, 330 minutes): 6.8 µg/mL | concentration at 6 h [7, 10]: 4.8 µg/mL | dose excreted at 6 h ([7]; 20 mg/kg): 18% | fraction unbound [8]: 0.52
Structure (SMILES): CC(C)(ON=C(C(=O)NC1C(=O)N2C(C(=O)O)=C(COC(=O)c3ccc(NC(=O)CCN)cc3)CSC12)c1csc(N)n1)C(=O)O (stereo not drawn) [Product B, reference compound]

— patent US5079241A, “Cephalosporin derivatives and pharmaceutical compositions in which they are present” (Sanofi, priority 1987, dated 1992)
